# Source: patent US20260184726A1, “HETEROCYCLIC COMPOUNDS AS KINASE INHIBITORS, COMPOSITIONS, AND METHODS OF USE THEREOF” (JS INNOMED HOLDINGS LTD., priority 2022, published 2026)
# Columns and labels:
# [1] = molecular target: T1, human Aurora B kinase (Homo sapiens, UniProt Q96GD4); assay: Aurora B Kinase Assay (mobility shift assay, ATP at Km); assay type: biochemical; settings: 15 μM ATP (Km), read-out: AurB Enzymatic Activity
# T1 construct: purchased Carna 05-102
# Method: Compounds were tested by Mobility shift assay with ATP concentration at Km. The assay used human Aurora B kinase (Carna 05-102). Test compounds were prepared and diluted in DMSO in 3-fold serial dilutions to 50× of the final testing concentrations. The compounds were then further diluted to 5× by the kinase reaction buffer (50 mM HEPES pH 7.5, 0.0015% Brij-35). The enzymatic reaction for compound testing was performed in a white 384-well polypropylene plate (Corning 3573) with a total reaction volume of 25 μl containing 9 nM Aurora B, 3 μM peptide substrate FAM-P21 (GL Biochem 116370), and 15 μM ATP (Sigma A7699-1G). The assay started with loading Aurora B diluted in kinase reaction buffer to wells, followed by addition of equal volume of 5× compounds for 15-min incubation at the room temperature for pre-treatment. The enzymatic reaction was initiated by addition of mixture of the substrate and ATP prepared in kinase reaction buffer. After incubation at 28° C. for one hour, 25 μl of stopper buffer (a mixture of 100 mM HEPES pH 7.5 buffer, 0.015% Brij-35, 50 mM EDTA and 0.2% of coating reagent 3 (Cliper Lifesciences)). After 30 minutes of incubation at room temperature, the plate was read in a Caliper. Percent of control was calculated as the percentage of compound-treated vs 2% DMSO vehicle-treated. The dose-response curves were generated and the IC50 values were calculated by nonlinear sigmoid curve fitting using XLFit.
# [2] = molecular target: T2, BAF3-KIF5B-RET cells (Homo sapiens, UniProt P07949); assay: BAF3-KIF5B-RET Cell Proliferation Assay (CellTiter-Glo); assay type: cell-based; settings: growth inhibition, 72 hours; Table 2; read-out: BA/F3-KIF5B-RET Cellular activity
# T2 construct: fused on or other part: P33176 (Kinesin-1 heavy chain)
# Method: Compounds disclosed herein were tested for the inhibition of RET by a cancer cell proliferation assay commonly known as CellTiter-Glo assay. In this assay, a complete media was prepared by adding 10% fetal bovine serum to RPMI-1640 medium (Life technology) for RET-driven cancer cells (BAF3-FIF5B-RET, Ba/F3-KIF5B-RET-G810R, Ba/F3-TEL-RET-M918T or Ba/F3-KIF5B-RET-V804M). Individual RET-driven type of cells were added to each of 88 wells of a 96 well plate at a seeding density of 2,000 cells/well/95 μL. The cells were allowed to attach to the plate by incubating at 37° C. for 24 hours. The compound was dissolved in DMSO (SIGMA). A solution of test compound was prepared in complete media by serial dilution to obtain the following concentrations: 20 μM, 6.67 μM, 2.22 μM, 0.74 μM, 0.25 μM, 0.082 μM, 0.027 μM, 0.0091 μM and 0.0030 μM. The test compound solution (5 μL) was added to each of 80 cell-containing wells. The final concentrations of the compound were following: 1 μM, 0.33 μM, 0.11 μM, 0.037 μM, 0.012 μM, 0.0041 μM, 0.0014 μM, 0.00046 μM and 0.00015 μM. The final concentration of DMSO is 0.1%. To the 8 remaining cell-containing wells, only complete media (containing 0.1% DMSO) was added to form a control group in order to measure maximal proliferation. To the remaining 8 empty wells, complete media was added to for a vehicle control group in order to measure background. The plates were incubated at 37° C. for 72 hours. 50 μl of CellTiter-Glo® Reagent was added to each well. Mix contents for 2 minutes on an orbital shaker to induce cell lysis. Incubate at room temperature for 10 minutes to stabilize luminescent signal. Record luminescence on Paradigm. Cell viability (CV %) was calculated relative to vehicle (DMSO) treated control wells. The IC50 was calculated using GraphPad Prism.
# [3] = molecular target: T3, human RET kinase (Homo sapiens, UniProt P07949); assay: RET Kinase Assay (mobility shift assay, ATP at Km); assay type: biochemical; settings: 23 μM ATP (Km), read-out: RET Enzymatic Activity
# T3 construct: purchased Carna 08-159
# Method: Compounds were tested by Mobility shift assay with ATP concentration at Km. The assay used human RET kinase (Carna 08-159). Test compounds were prepared and diluted in DMSO in 3-fold serial dilutions to 50× of the final testing concentrations. The compounds were then further diluted to 5× by the kinase reaction buffer (50 mM HEPES pH 7.5, 0.0015% Brij-35). The enzymatic reaction for compound testing was performed in a white 384-well polypropylene plate (Corning 3573) with a total reaction volume of 25 μl containing 7 nM RET, 3 μM peptide substrate FAM-P2 (GL Biochem 112394), and 23 μM ATP (Sigma A7699-1G). The assay started with loading RET diluted in kinase reaction buffer to wells, followed by addition of equal volume of 5× compounds for 15-min incubation at the room temperature for pre-treatment. The enzymatic reaction was initiated by addition of mixture of the substrate and ATP prepared in kinase reaction buffer. After incubation at 28° C. for one hour, 25 μl of stopper buffer (a mixture of 100 mM HEPES pH 7.5 buffer, 0.015% Brij-35, 50 mM EDTA and 0.2% of coating reagent 3 (Cliper Lifesciences)). After 30 minutes of incubation at room temperature, the plate was read in a Caliper. Percent of control was calculated as the percentage of compound-treated vs 2% DMSO vehicle-treated. The dose-response curves were generated and the IC50 values were calculated by nonlinear sigmoid curve fitting using XLFit.
# [4] = test system: BAF3 cells; assay: BAF3 Cell Proliferation Assay (CellTiter-Glo, without RET driven, IL-3); assay type: cell-based; settings: Mus musculus; growth inhibition in BAF3 cells, 72 hours, with IL-3; read-out: BAF3 Cellular Activity
# Method: Compounds disclosed herein were tested for the inhibition BAF3 cells proliferation without RET driven by CellTiter-Glo assay. In this assay, a complete media was prepared by adding 10% fetal bovine serum and 1 ng/ml IL-3 to RPMI-1640 medium (Life technology) for BAF3 cells. BAF3 cells were added to each of 88 wells of a 96 well plate at a seeding density of 2,000 cells/well/95 μL. The cells were allowed to attach to the plate by incubating at 37° C. for 24 hours. The compound was dissolved in DMSO (SIGMA). A solution of test compound was prepared in complete media by serial dilution to obtain the following concentrations: 200 μM, 66.7 μM, 22.2 μM, 7.4 μM, 2.5 μM, 0.82 μM, 0.27 μM, 0.091 μM and […]. The test compound solution (5 μL) was added to each of 80 cell-containing wells. The final concentrations of the compound were following: 10 μM, 3.33 μM, 1.11 μM, 0.37 μM, 0.12 μM, 0.041 μM, 0.014 μM, 0.0046 μM and 0.0015 μM. The final concentration of DMSO is 0.1%. To the 8 remaining cell-containing wells, only complete media (containing 0.1% DMSO) was added to form a control group in order to measure maximal proliferation. To the remaining 8 empty wells, complete media was added to for a vehicle control group in order to measure background. The plates were incubated at 37° C. for 72 hours. 50 μl of CellTiter-Glo® Reagent was added to each well. The contents were mixed for 2 minutes on an orbital shaker to induce cell lysis, and then were incubated at room temperature for 10 minutes to stabilize luminescent signal. Luminescence was recorded on Paradigm. Cell viability (CV %) was calculated relative to vehicle (DMSO) treated control wells. The IC50 was calculated using GraphPad Prism.
# T3 sequence (P07949 29-1114): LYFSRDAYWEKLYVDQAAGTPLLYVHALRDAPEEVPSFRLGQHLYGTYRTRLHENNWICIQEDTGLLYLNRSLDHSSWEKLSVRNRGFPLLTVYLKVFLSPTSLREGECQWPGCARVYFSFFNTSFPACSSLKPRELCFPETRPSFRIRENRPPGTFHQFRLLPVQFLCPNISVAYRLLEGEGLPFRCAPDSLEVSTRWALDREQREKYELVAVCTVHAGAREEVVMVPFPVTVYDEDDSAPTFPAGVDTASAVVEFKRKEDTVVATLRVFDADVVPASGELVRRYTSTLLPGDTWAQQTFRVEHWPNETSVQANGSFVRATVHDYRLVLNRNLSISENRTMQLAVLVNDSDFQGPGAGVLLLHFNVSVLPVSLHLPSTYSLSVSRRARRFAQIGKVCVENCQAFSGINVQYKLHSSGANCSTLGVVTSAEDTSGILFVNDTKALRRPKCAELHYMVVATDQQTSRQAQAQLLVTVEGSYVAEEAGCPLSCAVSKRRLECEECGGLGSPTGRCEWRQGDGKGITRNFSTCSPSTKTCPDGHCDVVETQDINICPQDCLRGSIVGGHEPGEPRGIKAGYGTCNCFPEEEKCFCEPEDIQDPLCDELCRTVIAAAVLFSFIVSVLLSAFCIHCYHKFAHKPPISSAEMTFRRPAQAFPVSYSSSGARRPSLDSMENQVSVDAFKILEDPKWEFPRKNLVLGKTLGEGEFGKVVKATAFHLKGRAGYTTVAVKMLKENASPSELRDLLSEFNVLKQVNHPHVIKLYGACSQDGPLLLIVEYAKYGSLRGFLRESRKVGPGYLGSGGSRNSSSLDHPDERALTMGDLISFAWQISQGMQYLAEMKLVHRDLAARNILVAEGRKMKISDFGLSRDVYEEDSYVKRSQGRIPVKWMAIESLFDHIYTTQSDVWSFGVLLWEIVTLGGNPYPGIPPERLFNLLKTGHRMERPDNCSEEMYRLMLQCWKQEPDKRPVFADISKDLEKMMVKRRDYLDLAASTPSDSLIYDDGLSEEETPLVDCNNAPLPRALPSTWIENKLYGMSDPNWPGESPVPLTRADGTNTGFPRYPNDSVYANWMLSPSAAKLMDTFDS
# T2 sequence (P07949 whole entry, change not shown, the tested form may be a part): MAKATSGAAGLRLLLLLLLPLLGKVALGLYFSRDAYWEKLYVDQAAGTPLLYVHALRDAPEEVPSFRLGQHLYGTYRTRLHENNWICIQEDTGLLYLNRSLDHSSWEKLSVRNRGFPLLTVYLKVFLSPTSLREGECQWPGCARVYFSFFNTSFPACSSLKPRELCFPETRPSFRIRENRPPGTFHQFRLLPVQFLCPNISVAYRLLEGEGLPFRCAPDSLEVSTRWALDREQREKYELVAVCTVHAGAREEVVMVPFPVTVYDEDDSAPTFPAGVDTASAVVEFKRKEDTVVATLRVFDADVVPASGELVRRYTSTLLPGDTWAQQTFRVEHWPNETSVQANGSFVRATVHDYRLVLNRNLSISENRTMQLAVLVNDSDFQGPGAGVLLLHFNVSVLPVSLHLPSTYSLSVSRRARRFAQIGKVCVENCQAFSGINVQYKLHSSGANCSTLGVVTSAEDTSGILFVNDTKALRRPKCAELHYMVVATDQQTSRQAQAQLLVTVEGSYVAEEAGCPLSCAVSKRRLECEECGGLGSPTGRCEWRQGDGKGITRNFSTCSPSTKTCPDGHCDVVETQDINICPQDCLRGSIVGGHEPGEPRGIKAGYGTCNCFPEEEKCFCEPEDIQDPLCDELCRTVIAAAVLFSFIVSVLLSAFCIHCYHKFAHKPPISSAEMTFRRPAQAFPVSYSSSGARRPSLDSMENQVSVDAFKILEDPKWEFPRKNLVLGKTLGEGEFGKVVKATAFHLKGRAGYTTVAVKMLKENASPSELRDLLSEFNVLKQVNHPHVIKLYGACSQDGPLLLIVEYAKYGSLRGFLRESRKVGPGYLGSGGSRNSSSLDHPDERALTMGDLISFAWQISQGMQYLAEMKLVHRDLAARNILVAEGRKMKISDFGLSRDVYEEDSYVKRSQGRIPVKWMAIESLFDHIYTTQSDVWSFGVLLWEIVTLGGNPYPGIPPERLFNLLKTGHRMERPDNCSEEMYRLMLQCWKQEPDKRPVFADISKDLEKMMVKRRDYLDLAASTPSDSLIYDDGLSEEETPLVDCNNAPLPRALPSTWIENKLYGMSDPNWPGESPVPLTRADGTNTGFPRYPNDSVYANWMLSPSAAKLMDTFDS
# T1 sequence (Q96GD4 whole entry): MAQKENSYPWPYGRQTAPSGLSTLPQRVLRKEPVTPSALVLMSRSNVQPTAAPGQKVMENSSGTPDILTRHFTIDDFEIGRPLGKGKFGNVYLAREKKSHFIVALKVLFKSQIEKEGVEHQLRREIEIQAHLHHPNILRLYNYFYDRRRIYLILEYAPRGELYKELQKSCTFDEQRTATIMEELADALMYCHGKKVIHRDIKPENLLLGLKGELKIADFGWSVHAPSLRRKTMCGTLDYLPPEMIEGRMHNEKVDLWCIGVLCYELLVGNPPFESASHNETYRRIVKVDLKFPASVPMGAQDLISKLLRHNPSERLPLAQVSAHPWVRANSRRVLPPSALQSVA
# T1 sequence (Q9NQS7 803-918 partner limits assumed): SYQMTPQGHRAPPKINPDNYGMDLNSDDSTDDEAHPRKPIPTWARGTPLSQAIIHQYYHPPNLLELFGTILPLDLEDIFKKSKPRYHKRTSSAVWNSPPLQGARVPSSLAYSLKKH
SMILES,IC50 [1],GI50 [2],IC50 [3],IC50 [4]
"COc1ccc(CN2C3CC2CN(c2ccc(-c4cc(-c5cc(C(C)(C)O)n(C)n5)cn5ncc(C#N)c45)cn2)C3)cn1 [Example 4, 6-(5-(2-hydroxypropan-2-yl)-1-methyl-1H-pyrazol-3-yl)-4-(6-(6-((6-methoxypyridin-3-yl)methyl)-3,6-diazabicyclo[3.1.1]heptan-3-yl)pyridin-3-yl)pyrazolo[1,5-a]pyridine-3-carbonitrile]",128 nM,0.7 nM,0.67 nM,2220 nM
"CC(C)(O)c1ccc(-c2cc(-c3ccc(N4C[C@@H]5[C@@H](CNC(=O)c6ncccc6Cl)[C@@H]5C4)nc3)c3c(C#N)cnn3c2)nc1 [Example 5, 3-chloro-N-(((1R,5S,6s)-3-(5-(3-cyano-6-(5-(2-hydroxypropan-2-yl)pyridin-2-yl)pyrazolo[1,5-a]pyridin-4-yl)pyridin-2-yl)-3-azabicyclo[3.1.0]hexan-6-yl)methyl)picolinamide]",19.5 nM,3 nM,0.8 nM,516 nM
"COc1ccc(CN2C3CC2CN(c2ccc(-c4cc(-c5ccc(C(C)(C)O)nc5)cn5ncc(C#N)c45)cn2)C3)cn1 [Example 8, 6-(6-(2-hydroxypropan-2-yl)pyridin-3-yl)-4-(6-(6-((6-methoxypyridin-3-yl)methyl)-3,6-diazabicyclo[3.1.1]heptan-3-yl)pyridin-3-yl)pyrazolo[1,5-a]pyridine-3-carbonitrile]",45 nM,1.4 nM,0.38 nM,1050 nM
"COc1ccc(CN2C3CC2CN(c2ccc(-c4cc(-c5ccc(C(C)(C)O)s5)cn5ncc(C#N)c45)cn2)C3)cn1 [Example 27, 6-(5-(2-hydroxypropan-2-yl)thiophen-2-yl)-4-(6-(6-((6-methoxypyridin-3-yl)methyl)-3,6-diazabicyclo[3.1.1]heptan-3-yl)pyridin-3-yl)pyrazolo[1,5-a]pyridine-3-carbonitrile]",,0.7 nM,,913 nM
"COc1ccc(CN2C3CC2CN(c2ccc(-c4cc(-c5cc(C(C)(C)NC(C)=O)n(C)n5)cn5ncc(C#N)c45)cn2)C3)cn1 [Example 28, N-(2-(3-(3-cyano-4-(6-(6-((6-methoxypyridin-3-yl)methyl)-3,6-diazabicyclo[3.1.1]heptan-3-yl)pyridin-3-yl)pyrazolo[1,5-a]pyridin-6-yl)-1-methyl-1H-pyrazol-5-yl)propan-2-yl)acetamide]",,4 nM,,2330 nM
"COc1ccc(CN2C3CC2CN(c2ccc(-c4cc(-c5ccc(OCC(C)(C)O)cn5)cn5ncc(C#N)c45)cn2)C3)cn1 [Example 32, 6-(5-(2-hydroxy-2-methylpropoxy)pyridin-2-yl)-4-(6-(6-((6-methoxypyridin-3-yl)methyl)-3,6-diazabicyclo[3.1.1]heptan-3-yl)pyridin-3-yl)pyrazolo[1,5-a]pyridine-3-carbonitrile]",,1.4 nM,,1620 nM
"COc1ccc(CN2C3CC2CN(c2ccc(-c4cc(-c5ccc(OCC(C)(C)O)nc5)cn5ncc(C#N)c45)cn2)C3)cn1 [Example 33, 6-(6-(2-hydroxy-2-methylpropoxy)pyridin-3-yl)-4-(6-(6-((6-methoxypyridin-3-yl)methyl)-3,6-diazabicyclo[3.1.1]heptan-3-yl)pyridin-3-yl)pyrazolo[1,5-a]pyridine-3-carbonitrile]",,5.1 nM,,2580 nM
"COc1ccc(CN2C3CC2CN(c2ccc(-c4cc(-c5ccn(CC(C)(C)O)n5)cn5ncc(C#N)c45)cn2)C3)cn1 [Example 34, 6-(1-(2-hydroxy-2-methylpropyl)-1H-pyrazol-3-yl)-4-(6-(6-((6-methoxypyridin-3-yl)methyl)-3,6-diazabicyclo[3.1.1]heptan-3-yl)pyridin-3-yl)pyrazolo[1,5-a]pyridine-3-carbonitrile]",,0.7 nM,,1800 nM
"COc1ccc(CN2C3CC2CN(c2ccc(-c4cc(-c5cnn(CC(C)(C)O)c5)cn5ncc(C#N)c45)cn2)C3)cn1 [Example 35, 6-(1-(2-hydroxy-2-methylpropyl)-1H-pyrazol-4-yl)-4-(6-(6-((6-methoxypyridin-3-yl)methyl)-3,6-diazabicyclo[3.1.1]heptan-3-yl)pyridin-3-yl)pyrazolo[1,5-a]pyridine-3-carbonitrile]",,0.5 nM,,340 nM
"COc1ccc(CN2C3CC2CN(c2ccc(-c4cc(-c5ccc(S(N)(=O)=O)cn5)cn5ncc(C#N)c45)cn2)C3)cn1 [Example 36, 6-(3-cyano-4-(6-(6-((6-methoxypyridin-3-yl)methyl)-3,6-diazabicyclo[3.1.1]heptan-3-yl)pyridin-3-yl)pyrazolo[1,5-a]pyridin-6-yl)pyridine-3-sulfonamide]",,16.6 nM,,8210 nM
